This note sets out measurements from US9000045B2, “CETP activity inhibitors” (Japan Tobacco Inc., priority 1997, dated 2015).

By IC50 is commonly meant the concentration that inhibits the measured activity by half.

The structures appear in SMILES notation.

The target of assay [1] is T1, CETP (Homo sapiens, UniProt P11597).
T1 sequence (P11597 18-493): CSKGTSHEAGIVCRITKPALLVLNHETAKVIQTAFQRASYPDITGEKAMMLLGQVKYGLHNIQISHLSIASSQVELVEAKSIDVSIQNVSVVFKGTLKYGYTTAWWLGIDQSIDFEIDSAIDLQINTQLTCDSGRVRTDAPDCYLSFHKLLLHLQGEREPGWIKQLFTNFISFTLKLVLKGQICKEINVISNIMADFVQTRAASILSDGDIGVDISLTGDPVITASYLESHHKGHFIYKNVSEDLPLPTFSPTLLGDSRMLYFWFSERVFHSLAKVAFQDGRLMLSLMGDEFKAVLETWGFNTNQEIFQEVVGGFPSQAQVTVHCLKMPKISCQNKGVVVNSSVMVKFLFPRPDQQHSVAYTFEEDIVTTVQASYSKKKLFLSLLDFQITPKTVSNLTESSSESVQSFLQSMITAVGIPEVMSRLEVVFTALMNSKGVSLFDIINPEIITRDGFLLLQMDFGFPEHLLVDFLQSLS
The assay can be described thus: Ex vivo CETP activity inhibitory effect of plasma from transgenic mice. Also noted: from tissue; host or cells: plasma of transgenic mice carrying the human CETP gene. To be noted: mouse, po, p.o., 6 hours after administration, transgenic mice with human CETP gene, read-out: CETP activity inhibitory rate in plasma from transgenic mouse. The procedure:
Potassium bromide (KBr) was added to the plasma of healthy subjects (40 ml) to adjust specific gravity to d=1.125 g/ml. Density gradient centrifugation (227,000×g, 4° C., 17 hours) was conducted to obtain a fraction with specific gravity d>1.125 g/ml (HDL3 fraction). The fraction thus obtained was dialyzed against a PBS solution [10 mM Na2HPO4/10 mM NaH2PO4/0.15 M NaCl/1 mM EDTA (pH 7.4)]. Then, tritium-labeled cholesterol (10 nM) (50.3 Ci/mM) was dissolved in 95% ethanol and added gradually to the above HDL3 fraction under stirring. The solution was incubated for 18 hours at 37° C. [Tritium-labeled cholesterol was esterified by this procedure by the action of lecithin:cholesterol acyltransferase (LCAT) present on the surface of HDL3 and taken up into the interior of HDL3 as tritium-labeled cholesterylester ([^3H]CE)]. After incubation, KBr was added and specific gravity was adjusted to d=1.21 g/ml. Density gradient centrifugation (227,000×g, 4° C., 17 hours) was conducted and the fraction with d<1.21 g/ml was harvested. The fraction thus obtained was dialyzed against the above PBS solution to obtain HDL3 that took up [^3H]CE ([^3H]CE-HDL3, specific gravity: 1.125<d<1.21, specific activity: 101,000 dpm/nM), which served as donor lipoprotein.
Physiological saline (specific gravity d=1.006 g/ml) was layered upon the plasma of healthy subjects (100 ml). Density gradient centrifugation (227,000×g, 4° C., 4 hours) was conducted and the fraction with specific gravity d>1.006 g/ml was harvested. KBr was added to the fraction thus obtained to adjust specific gravity to d=1.063 g/ml and density gradient centrifugation (227,000×g, 4° C., 20 hours) was conducted to harvest the fraction with specific gravity […]. The thus-obtained fraction was dialyzed against the above PBS solution to obtain fractions containing IDL and LDL (specific gravity: 1.006<d<1.063), which served as acceptor lipoprotein.
Samples were suspended in a 0.5% methylcellulose solution and administered orally using a plastic probe to transgenic mice having introduced human CETP gene (hereafter referred to as mice; prepared using the method described in Japanese Patent Application No. Hei 8-130660), which had been fasted overnight. Blood was collected before administration, and 6 hours after administration CETP activity in the plasma was determined using the following method.
Donor lipoprotein ([^3H]CE-HDL3, containing 0.21 μg cholesterol) obtained in the above (1), acceptor lipoprotein obtained in the above (2) (containing 21 μg of cholesterol), and 0.9 μl of mice plasma were added to microtubes. A total volume was adjusted to 600 μl/tube with a TBS solution [10 mM Tris/0.15 M NaCl (pH 7.4)]. The microtubes were incubated for 15 hours at 37° C. or 4° C. Then, an ice-cooled TBS solution (400 μl/tube) and a 0.3% dextran sulfate solution (100 μl/tube) containing 0.15 M magnesium chloride were added to the microtubes and mixed well. After allowing the microtubes to stand for 30 minutes at 4° C., centrifugation (8,000 rpm, 4° C., 10 minutes) was carried out and radioactivity of the resulting supernatant (HDL fraction) was determined with a scintillation counter.

In assay [2] the target is T1, CETP. Kind of assay: In vitro CETP activity inhibitory effect in whole plasma. In kind it is biochemical. Also noted: Plasma containing [^3H]CE-HDL3 (600,000 dpm/ml) was prepared by adding donor lipoprotein obtained in the above (1) to plasma from healthy subjects; from tissue; host or cells: whole plasma of healthy subjects. To be noted: plasma from healthy subjects containing [3H]CE-HDL3, incubated 4 hours at 37° C.; read-out: CETP activity inhibition in whole plasma IC50. Put shortly:
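HDL3 was labelled with tritiated cholesterol (10 nM) for 18 h at 37° C in PBS with EDTA (pH 7.4). Test samples were in 1:1 N-methylpyrrolidone/PEG 400 and assayed in whole plasma. IC50 was calculated from % inhibition of CETP activity.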

For the molecule `CC(C)C1(C(=O)Nc2ccccc2S)CCCCC1` [Example 14], the inhibition at 30 mg/kg at CETP [1] came out at 9%. For the same molecule, the IC50 at CETP [2] turned out to be 8 µM.

`CCC(CC)CC1(C(=O)Nc2ccccc2SC(=O)C(C)(C)C)CCCCC1` [Example 60]: the inhibition at 30 mg/kg on CETP [1] was 44%. Moreover, the IC50 at CETP [2] turned out to be 41 µM.

On to `CC(=O)Sc1ccccc1NC(=O)C1(CCC(C)C)CCCC1` [Example 49], for which the inhibition at 30 mg/kg at CETP [1] worked out at 29%. The IC50 at CETP [2] amounted to 6 µM.

Turning to `CC(C)CCC1(C(=O)Nc2ccccc2SC(=O)Nc2ccccc2)CCCC1` [Example 25-106], the inhibition at 30 mg/kg at CETP [1] worked out at 29%. Moreover, on CETP [2], the IC50 is 10 µM.

Consider `COc1ccccc1C(=O)Sc1ccccc1NC(=O)C1(CCC(C)C)CCCC1` [Example 25-63], for which the inhibition at 100 mg/kg at CETP [1] amounted to 25%. Besides, on CETP [2], the IC50 was determined as 21 µM.

Regarding `CC(C)CC1(C(=O)Nc2ccccc2SC(=O)COc2ccc(Cl)cc2)CCCCC1` [Example 64], the inhibition at 30 mg/kg at CETP [1] was determined as 34%. The IC50 on CETP [2] came to 4 µM.

Turning to `CC(C)CCC1(C(=O)Nc2ccccc2SC(=O)C(C)(C)C)CCCC1` [Example 48], at CETP [1], the inhibition at 30 mg/kg is 31% and the inhibition at 100 mg/kg is 50%. In addition, the IC50 at CETP [2] stood at 49 µM.

Turning to `CC(=O)N[C@@H](Cc1ccccc1)C(=O)Sc1ccccc1NC(=O)C1(CCC(C)C)CCCCC1` [Example 34], the inhibition at 30 mg/kg on CETP [1] was 4%. For the same molecule, the IC50 on CETP [2] turned out to be 9 µM.

`CC(C)CCC1(C(=O)Nc2ccccc2SC(=O)Cc2ccccc2)CCCC1` [Example 25-61]: the inhibition at 30 mg/kg on CETP [1] amounted to 28%. Besides, the half-inhibitory concentration (IC50) at CETP [2] is 5 µM.

For `CC(C)CCC1(C(=O)Nc2ccccc2SC(=O)C(C)C)CCCCC1` [Example 40], at CETP [1], the inhibition at 10 mg/kg stood at 20%, the inhibition at 30 mg/kg stood at 48% and the inhibition at 100 mg/kg came out at 64%. For the same molecule, the half-maximal inhibitory concentration (IC50) at CETP [2] was 23 µM.

For the molecule `CC(C)CCC1(C(=O)Nc2ccccc2SC(=O)/C=C/c2ccccc2)CCCCC1` [Example 25-59], at CETP [1], the inhibition at 10 mg/kg turned out to be 20% and the inhibition at 30 mg/kg was found to be 37%. Moreover, at CETP [2], the IC50 was 8 µM.

Consider `CC(C)CCC1(C(=O)Nc2ccccc2SC(=O)COc2ccccc2)CCCCC1` [Example 39], for which, on CETP [1], the inhibition at 10 mg/kg is 17% and the inhibition at 30 mg/kg was 41%. Moreover, the half-maximal inhibitory concentration (IC50) on CETP [2] came to 11 µM.

Turning to `CCC(CC)CC1(C(=O)Nc2ccccc2SC(=O)C(C)(C)O)CCCCC1` [Example 62], on CETP [1], the inhibition at 30 mg/kg turned out to be 38%. Besides, the concentration for half-maximal inhibition (IC50) at CETP [2] was found to be 4 µM.

With `CC(C)CCC1(C(=O)Nc2ccccc2SC(=O)C2(N)CCCCC2)CCCCC1` [Example 47], the inhibition at 30 mg/kg at CETP [1] is 31%. Also, the IC50 on CETP [2] turned out to be 6 µM.

For `CC(C)CCC1(C(=O)Nc2ccccc2SC(=O)C2CC2)CCCCC1` [Example 42], at CETP [1], the inhibition at 10 mg/kg is 31% and the inhibition at 30 mg/kg was 38%. Moreover, on CETP [2], the IC50 came to 9 µM.

On to `CC(C)CCC1(C(=O)Nc2ccccc2SC(=O)Nc2ccccc2)CCCCC1` [Example 56], for which the inhibition at 30 mg/kg on CETP [1] was 34%. Also, the IC50 on CETP [2] turned out to be 13 µM.

For the molecule `CC(C)CCC1(C(=O)Nc2ccccc2SC(=O)COc2ccc(Cl)cc2)CCCCC1` [Example 41], at CETP [1], the inhibition at 10 mg/kg is 27% and the inhibition at 30 mg/kg amounted to 42%. Also, the IC50 on CETP [2] was 7 µM.

On to `CC(=O)OC(C)(C)C(=O)Sc1ccccc1NC(=O)C1(CCC(C)C)CCCCC1` [Example 25-52], for which, on CETP [1], the inhibition at 10 mg/kg stood at 19% and the inhibition at 30 mg/kg amounted to 40%. For the same molecule, on CETP [2], the IC50 is 68 µM.

For the molecule `CC(C)CCC1(C(=O)Nc2ccccc2SC(=O)C(C)(C)C)CCCCC1` [Example 33], on CETP [1], the inhibition at 10 mg/kg was 23%, the inhibition at 30 mg/kg is 39% and the inhibition at 100 mg/kg amounted to 52%. For the same molecule, the inhibition at 300 mg/kg at CETP [1] (300 mg/kg) was 55%. Also, the IC50 at CETP [2] came out at 61 µM.

Take `CC(=O)N[C@@H](CCC(N)=O)C(=O)Sc1ccccc1NC(=O)C1(CCC(C)C)CCCCC1` [Example 45]: on CETP [1], the inhibition at 10 mg/kg was determined as 18% and the inhibition at 30 mg/kg came to 36%. Besides, the IC50 at CETP [2] stood at 7 µM.

In the case of `CC(=O)NC1(C(=O)Sc2ccccc2NC(=O)C2(CCC(C)C)CCCCC2)CCCCC1` [Example 25-56], the inhibition at 30 mg/kg on CETP [1] is 24%. For the same molecule, on CETP [2], the IC50 worked out at 7 µM.
